Test results reported in US20250228759A1, “ANTI-AGING COSMETIC COMPOSITIONS COMPRISING XANTHOMMATIN” (SEASPIRE, INC., priority 2021, published 2025).

System: NativeSkin® human skin tissues
Assay: Gene expression assay (Genemarkers Standard Skin Panel, qPCR) in ex vivo skin
Format: cell-based
Conditions: 24 hrs, N=4
Procedure: This study was conducted to determine how different concentrations (0.316 μM-10.0 mM) of xanthommatin influences gene expression in ex vivo NativeSkin® human skin tissues (purchased from Genoskin). NativeSkin® human skin models hold normal skin barrier function, a mature stratum corneum, a functional basal layer and all cell types and skin appendages of in vivo human skin.
Gene expression was assessed using Genemarkers Standard Skin Panel, a qPCR-based gene expression panel which contains 107 target genes potentially relevant in skin biology and 5 endogenous control genes. Gene expression was assessed 24 hrs following application of the test material to the skin tissues.
Formulation design. A gel containing either 0.1% or 0.4% (Table 1) by mass percentage of ammonium xanthommatin (Xa) was prepared. Phase A was initiated by adding 0.3 wt % of carbomer into the water without stirring. Next, the solution was heated to 75° C. with mixing to allow the carbomer to disperse throughout the mixture before ammonium xanthommatin was slowly added and allowed to mix for full dissolution. In a separate reaction vessel, Phase B was created with glycerin (3.5%) and phenoxyethanol (0.95%) and mixed well. Phase B was then added to Phase A. The final phase (Phase C), containing 4% deionized water and 0.4% sodium hydroxide, was added to the main phase for neutralization. The gel was then cooled to room temperature.
Tissue equilibration. Native tissues (Genoskin) were equilibrated overnight at 37° C. with 5% CO2 and ˜95% relative humidity. The following day, the equilibrium medium was removed from each well and replaced with 1.0 mL of maintenance medium.
Treatment Media. Tissues were obtained from the abdomen of a person with Fitzpatrick type 2-3 skin. Genoskin facilities mounted 11 mm biopsies into Nativeskin tissue inserts which were used for genetic analysis 5 days later. N=4 biological replicates per treatment group. For WST-8 (−) control tissue (N=2), 10 μL of Triton X-100 (1%) was applied to the surface of the tissue; two untreated tissues served as the WST-8 control.
Tissue and medium collections. A 2 mm biopsy punch was taken from the center for the WST-8 assay. Remaining tissues were placed in a tube containing RNAlater preservative solutions. Tissues were incubated for 1-2 hrs until RNA was isolated. RNA was isolated using an RNeasy Mini kit (Qiagen) following the manufacturer's instructions. Each sample was vacuum concentrated to at least 200 ng/μL to provide sufficient amount of RNA for cDNA synthesis. RNA concentration and purity were determined using a Nanodrop 2000 spectrophotometer.
cDNA was generated using a High Capacity cDNA Synthesis Kit (Applied Biosystems) and was generated from 2000 ng RNA per sample for OpenArray processing. qPCR data quality and statistical analysis was assessed and performed on the raw data files using ThermoFisher Connect Software (Life Technologies). Statistical analysis was performed using the relative quantitation (RQ) method, where the Cq value of the target gene is normalized to the Cq value of an endogenous control gene (selected from one of GAPDH, GUSB, HPRT1, PPIA, and UBC) to generate the delta Cq values, which were used to normalize variability between the samples.
Statistical analysis. Unpaired t-tests were carried out using the ThermoFisher Connect software.

NC(CC(=O)c1cccc2oc3cc(=O)c4[nH]c(C(=O)O)cc(=O)c4c-3nc12)C(=O)O (stereo not drawn) [ammonium xanthommatin]
HAS2 (Hyaluronan synthase 2) gene expression, % Change (3.16 mM (0.1%) dose group): 74%
HAS2 (Hyaluronan synthase 2) gene expression, FC (linear fold change) (3.16 mM (0.1%) dose group): 1.74
HAS2 (Hyaluronan synthase 2) gene expression, Rq (3.16 mM (0.1%) dose group): 1.74
COL1A1 (collagen) gene expression, % Change (10 mM (0.4%) dose group): 153%
COL1A1 (collagen) gene expression, FC (linear fold change) (10 mM (0.4%) dose group): 2.53
COL1A1 (collagen) gene expression, Rq (10 mM (0.4%) dose group): 2.525
COL3A1 (collagen) gene expression, % Change (10 mM (0.4%) dose group): 137%
COL3A1 (collagen) gene expression, FC (linear fold change) (10 mM (0.4%) dose group): 2.37
COL3A1 (collagen) gene expression, Rq (10 mM (0.4%) dose group): 2.37
FOXO3 (subclass of the forkhead family of transcription factors) gene expression, % Change (10 mM (0.4%) dose group): 114%
FOXO3 (subclass of the forkhead family of transcription factors) gene expression, FC (linear fold change) (10 mM (0.4%) dose group): 2.14
FOXO3 (subclass of the forkhead family of transcription factors) gene expression, Rq (10 mM (0.4%) dose group): 2.142
HSPG2 (Heparan Sulfate Proteoglycan 2) gene expression, % Change (10 mM (0.4%) dose group): 48%
HSPG2 (Heparan Sulfate Proteoglycan 2) gene expression, FC (linear fold change) (10 mM (0.4%) dose group): 1.48
HSPG2 (Heparan Sulfate Proteoglycan 2) gene expression, Rq (10 mM (0.4%) dose group): 1.477
IGF1R (insulin-like growth factor 1) gene expression, % Change (10 mM (0.4%) dose group): 26%
IGF1R (insulin-like growth factor 1) gene expression, FC (linear fold change) (10 mM (0.4%) dose group): 1.26
IGF1R (insulin-like growth factor 1) gene expression, Rq (10 mM (0.4%) dose group): 1.257
ITGB4 (Integrin alpha-6/beta-4 is a receptor for laminin) gene expression, % Change (10 mM (0.4%) dose group): 58%
ITGB4 (Integrin alpha-6/beta-4 is a receptor for laminin) gene expression, FC (linear fold change) (10 mM (0.4%) dose group): 1.58
ITGB4 (Integrin alpha-6/beta-4 is a receptor for laminin) gene expression, Rq (10 mM (0.4%) dose group): 1.582
KRT14 (keratin 14) gene expression, % Change (10 mM (0.4%) dose group): 72%
KRT14 (keratin 14) gene expression, FC (linear fold change) (10 mM (0.4%) dose group): 1.72
KRT14 (keratin 14) gene expression, Rq (10 mM (0.4%) dose group): 1.721
MFN2 (mitofusin 2) gene expression, % Change (10 mM (0.4%) dose group): 45%
MFN2 (mitofusin 2) gene expression, FC (linear fold change) (10 mM (0.4%) dose group): 1.45
MFN2 (mitofusin 2) gene expression, Rq (10 mM (0.4%) dose group): 1.447
POLG1/MDP1 (DNA Polymerase Gamma) gene expression, % Change (10 mM (0.4%) dose group): 71%
POLG1/MDP1 (DNA Polymerase Gamma) gene expression, FC (linear fold change) (10 mM (0.4%) dose group): 1.71
POLG1/MDP1 (DNA Polymerase Gamma) gene expression, Rq (10 mM (0.4%) dose group): 1.713
ST14 (Suppressor of tumorigenicity 14 protein) gene expression, % Change (10 mM (0.4%) dose group): 39%
ST14 (Suppressor of tumorigenicity 14 protein) gene expression, FC (linear fold change) (10 mM (0.4%) dose group): 1.39
ST14 (Suppressor of tumorigenicity 14 protein) gene expression, Rq (10 mM (0.4%) dose group): 1.385
